Among the data in patent US8088761B2, “Enzyme inhibitors” (Cancer Research Technology Limited, priority 2005, dated 2012) are IC50 values, retold here.

The target in one test is T1, Aurora-A (Homo sapiens, UniProt O14965).
T1 sequence (O14965 1-403): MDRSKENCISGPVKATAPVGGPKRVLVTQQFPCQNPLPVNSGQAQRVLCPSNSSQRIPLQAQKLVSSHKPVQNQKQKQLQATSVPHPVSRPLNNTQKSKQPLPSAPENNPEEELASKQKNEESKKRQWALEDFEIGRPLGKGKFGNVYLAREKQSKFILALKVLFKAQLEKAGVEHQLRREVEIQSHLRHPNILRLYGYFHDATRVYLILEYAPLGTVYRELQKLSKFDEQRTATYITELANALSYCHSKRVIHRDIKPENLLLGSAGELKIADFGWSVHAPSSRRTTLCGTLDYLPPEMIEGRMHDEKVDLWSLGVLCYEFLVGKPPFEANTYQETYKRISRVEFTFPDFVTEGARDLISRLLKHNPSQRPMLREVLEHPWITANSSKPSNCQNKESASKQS
Put plainly: Flashplate Aurora A enzyme inhibition assay. Type of test: biochemical. Conditions: read-out: Aurora-A inhibition. Put shortly: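 This is a radiometric Flashplate format: plates were precoated with DTT, and compound (in 2% DMSO) was mixed with kinase buffer (pH 7.5 Tris, MgCl2, NaCl) containing 1 mM MBP, 20 μM ATP and ^33P-ATP. The reaction was started with 250 ng Aurora-A per well and incubated 2 h at RT. It was then stopped by 10 mM sodium pyrophosphate washing, and plates were scintillation-counted.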

The test system of the next test is HCT116 cells. As to the kind of experiment: Cell viability assay (MTT) in HCT116 cell line. It counts as cell-based. Conditions: Homo sapiens, HCT-116, 72 hrs, IC50 range, read-out: HCT116 cell growth inhibition. Put shortly: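 MTT read-out (4 hrs, 37 °C, DMSO extraction) following 72 hrs of treatment with 0-50 μM Aurora inhibitor. HCT116 cells were plated a day earlier and tested in triplicate; IC50 derived from the curve.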

Like-named read-outs stand apart in the source and are kept apart here. Bounds are passed on as bounds.

With `CC(c1ccncc1)N1CCN(c2c(Br)cnc3[nH]c(-c4ccc(OCCN(C)C)cc4)nc23)CC1` (stereo not drawn) [Example 131, 2-(4-(6-Bromo-7-(4-(1-(pyridin-4-yl)ethyl)piperazin-1-yl)-3H-imidazo[4,5-b]pyridin-2-yl)phenoxy)-N,N-dimethylethanamine], the IC50 on Aurora-A (Flashplate assay, IC50 range) was below 500 nM; with HCT116 cells, below 500 nM.

In the case of `CC(C)(C)OC(=O)NCc1ccc(-c2nc3c(N4CCC(Cc5ccccc5)CC4)c(Br)cnc3[nH]2)cc1` [Example 132, tert-Butyl 4-(7-(4-benzylpiperidin-1-yl)-6-bromo-3H-imidazo[4,5-b]pyridin-2-yl)benzylcarbamate], the IC50 was below 500 nM on Aurora-A (Flashplate assay, IC50 range) and 2000 to 50000 nM in the test on HCT116 cells.

As for `NCc1ccc(-c2nc3c(N4CCC(Cc5ccccc5)CC4)c(Br)cnc3[nH]2)cc1` [Example 133, (4-(7-(4-Benzylpiperidin-1-yl)-6-bromo-3H-imidazo[4,5-b]pyridin-2-yl)phenyl)methanamine], the IC50 is below 500 nM on Aurora-A (Flashplate assay, IC50 range) and 500 to 2000 nM in the test on HCT116 cells.

`CC(C)(C)OC(=O)NCc1ccc(-c2nc3c(N4CCC(Oc5ccccc5)CC4)c(Br)cnc3[nH]2)cc1` [Example 134, tert-Butyl 4-(6-bromo-7-(4-phenoxypiperidin-1-yl)-3H-imidazo[4,5-b]pyridin-2-yl)benzylcarbamate]: the IC50 was below 500 nM at Aurora-A (Flashplate assay, IC50 range) and below 500 nM in the test on HCT116 cells.

Consider `NCc1ccc(-c2nc3c(N4CCC(Oc5ccccc5)CC4)c(Br)cnc3[nH]2)cc1` [Example 135, (4-(6-Bromo-7-(4-phenoxypiperidin-1-yl)-3H-imidazo[4,5-b]pyridin-2-yl)phenyl)methanamine], for which the IC50 at Aurora-A (Flashplate assay, IC50 range) was below 500 nM; in the test on HCT116 cells, 500 to 2000 nM.

Take `CC(C)(C)OC(=O)N1CCN(c2ccc(-c3nc4c(N5CCN(Cc6cccnc6)CC5)c(Cl)cnc4[nH]3)cc2)CC1` [Example 136, tert-Butyl 4-(4-(6-chloro-7-(4-(pyridin-3-ylmethyl)piperazin-1-yl)-3H-imidazo[4,5-b]pyridin-2-yl)phenyl)piperazine-1-carboxylate]: the IC50 at Aurora-A (Flashplate assay, IC50 range) is 500 to 2000 nM; in the test with HCT116 cells it was 2000 to 50000 nM.

For the compound `Clc1cnc2[nH]c(-c3ccc(N4CCNCC4)cc3)nc2c1N1CCN(Cc2cccnc2)CC1` [Example 137, 6-Chloro-2-(4-(piperazin-1-yl)phenyl)-7-(4-(pyridin-3-ylmethyl)piperazin-1-yl)-3H-imidazo[4,5-b]pyridine], the IC50 on Aurora-A (Flashplate assay, IC50 range) was below 500 nM; in the test on HCT116 cells, 500 to 2000 nM.

As for `Clc1cnc2[nH]c(-c3ccc(Cn4cccn4)cc3)nc2c1N1CCN(Cc2cccnc2)CC1` [Example 138, 2-(4-((1H-Pyrazol-1-yl)methyl)phenyl)-6-chloro-7-(4-(pyridin-3-ylmethyl)piperazin-1-yl)-3H-imidazo[4,5-b]pyridine], the IC50 was below 500 nM at Aurora-A (Flashplate assay, IC50 range) and 500 to 2000 nM in the test with HCT116 cells.

As to `COc1ccc(-c2nc3c(N4CCN(Cc5cncnc5)CC4)c(Cl)cnc3[nH]2)cc1` [Example 139, 6-Chloro-2-(4-methoxyphenyl)-7-(4-(pyrimidin-5-ylmethyl)piperazin-1-yl)-3H-imidazo[4,5-b]pyridine], the IC50 on Aurora-A (Flashplate assay, IC50 range) was below 500 nM; in the test on HCT116 cells, 500 to 2000 nM.

In the case of `CC(C)(C)OC(=O)N1CCN(Cc2ccc(-c3nc4c(N5CCN(Cc6cncnc6)CC5)c(Cl)cnc4[nH]3)cc2)CC1` [Example 140, tert-Butyl 4-(4-(6-chloro-7-(4-(pyrimidin-5-ylmethyl)piperazin-1-yl)-3H-imidazo[4,5-b]pyridin-2-yl)benzyl)piperazine-1-carboxylate], the IC50 was below 500 nM on Aurora-A (Flashplate assay, IC50 range) and below 500 nM in the test with HCT116 cells.

`Clc1cnc2[nH]c(-c3ccc(CN4CCNCC4)cc3)nc2c1N1CCN(Cc2cncnc2)CC1` [Example 141, 6-Chloro-2-(4-(piperazin-1-ylmethyl)phenyl)-7-(4-(pyrimidin-5-ylmethyl)piperazin-1-yl)-3H-imidazo[4,5-b]pyridine]: the IC50 at Aurora-A (Flashplate assay, IC50 range) is below 500 nM; in the test with HCT116 cells, 500 to 2000 nM.

For `COc1ccc(-c2nc3c(N4CCN(C(C)c5ccncc5)CC4)c(Cl)cnc3[nH]2)cc1` (stereo not drawn) [Example 142, 6-Chloro-2-(4-methoxyphenyl)-7-(4-(1-(pyridin-4-yl)ethyl)piperazin-1-yl)-3H-imidazo[4,5-b]pyridine], the IC50 was below 500 nM on Aurora-A (Flashplate assay, IC50 range) and below 500 nM with HCT116 cells.

Regarding `CCN1CCN(c2c(Cl)cnc3[nH]c(-c4ccc(Cn5cccn5)cc4)nc23)CC1` [Example 143, 2-(4-((1H-pyrazol-1-yl)methyl)phenyl)-6-chloro-7-(4-ethylpiperazin-1-yl)-3H-imidazo[4,5-b]pyridine], the IC50 on Aurora-A (Flashplate assay, IC50 range) is below 500 nM; in the test on HCT116 cells it was below 500 nM.

Consider `COc1ccc(-c2nc3c(N4CCN(Cc5csc(C)n5)CC4)c(Br)cnc3[nH]2)cc1` [Example 144, 4-((4-(6-Bromo-2-(4-methoxyphenyl)-3H-imidazo[4,5-b]pyridin-7-yl)piperazin-1-yl)methyl)-2-methylthiazole], for which the IC50 on Aurora-A (Flashplate assay, IC50 range) is below 500 nM; with HCT116 cells, below 500 nM.

Regarding `COc1ccc(-c2nc3c(N4CCN(Cc5coc(C(C)C)n5)CC4)c(Br)cnc3[nH]2)cc1` [Example 145, 4-((4-(6-bromo-2-(4-methoxyphenyl)-3H-imidazo[4,5-b]pyridin-7-yl)piperazin-1-yl)methyl)-2-isopropyloxazole], the IC50 at Aurora-A (Flashplate assay, IC50 range) is below 500 nM; with HCT116 cells it was below 500 nM.

As for `COc1ccc(-c2nc3c(N4CCN(Cc5ccc(F)cc5)CC4)c(Br)cnc3[nH]2)cc1` [Example 147, 6-Bromo-7-(4-(4-fluorobenzyl)piperazin-1-yl)-2-(4-methoxyphenyl)-3H-imidazo[4,5-b]pyridine], the IC50 at Aurora-A (Flashplate assay, IC50 range) was below 500 nM; in the test on HCT116 cells, 2000 to 50000 nM.

`Fc1ccc(CN2CCN(c3c(Br)cnc4[nH]c(-c5ccc(CN6CCOCC6)cc5)nc34)CC2)cc1` [Example 148, 4-(4-(6-Bromo-7-(4-(4-fluorobenzyl)piperazin-1-yl)-3H-imidazo[4,5-b]pyridin-2-yl)benzyl)morpholine]: the IC50 at Aurora-A (Flashplate assay, IC50 range) was below 500 nM; with HCT116 cells it was 500 to 2000 nM.

For the compound `COc1ccc(-c2nc3c(N4CCN(CC5CCC5)CC4)c(Br)cnc3[nH]2)cc1` [Example 149, 6-Bromo-7-(4-(cyclobutylmethyl)piperazin-1-yl)-2-(4-methoxyphenyl)-3H-imidazo[4,5-b]pyridine], the IC50 on Aurora-A (Flashplate assay, IC50 range) was below 500 nM; in the test on HCT116 cells, below 500 nM.

Consider `Brc1cnc2[nH]c(-c3ccc(CN4CCOCC4)cc3)nc2c1N1CCN(CC2CCC2)CC1` [Example 150, 4-(4-(6-Bromo-7-(4-(cyclobutylmethyl)piperazin-1-yl)-3H-imidazo[4,5-b]pyridin-2-yl)benzyl)morpholine], for which the IC50 was below 500 nM at Aurora-A (Flashplate assay, IC50 range) and below 500 nM in the test with HCT116 cells.

For the compound `Brc1cnc2[nH]c(-c3ccc(CN4CCOCC4)cc3)nc2c1N1CCN(Cc2nccs2)CC1` [Example 152, 4-(4-(6-Bromo-7-(4-(thiazol-2-ylmethyl)piperazin-1-yl)-3H-imidazo[4,5-b]pyridin-2-yl)benzyl)morpholine], the IC50 on Aurora-A (Flashplate assay, IC50 range) was below 500 nM; in the test on HCT116 cells, 500 to 2000 nM.

Regarding `COc1ccc(-c2nc3c(N4CCN(Cc5cscn5)CC4)c(Br)cnc3[nH]2)cc1` [Example 154, 4-((4-(6-Bromo-2-(4-methoxyphenyl)-3H-imidazo[4,5-b]pyridin-7-yl)piperazin-1-yl)methyl)thiazole], the IC50 at Aurora-A and with HCT116 cells was below 500 nM each time.
